Reference: PubChem BioAssay (NCI)
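Values below derive from 48-hour exposures of cells grown in 96-well plates, with endpoints linearly interpolated between the two concentrations bracketing the appropriate inhibition level. The concentration for 50% growth inhibition is given as GI50. TGI: total growth inhibition.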

How the values were obtained:
Experiment in all cases: growth of human tumour cells (NCI), 48 h
HCC-2998 colon = system: HCC-2998 colon
786-0 renal = system: 786-0 renal
SK-OV-3 ovarian = system: SK-OV-3 ovarian
SK-MEL-5 melanoma = system: SK-MEL-5 melanoma
HCT-116 colon = system: HCT-116 colon
MDA-MB-435 = system: MDA-MB-435
A498 renal = system: A498 renal
NCI/ADR-RES ovarian = system: NCI/ADR-RES ovarian

Work on `Cc1nc2ccccn2c1NC(=O)NN1C(=O)CSC1c1ccc(Cl)cc1` (stereo not given) yielded a GI50 (HCC-2998 colon) greater than 100 µM, a TGI (HCC-2998 colon) greater than 100 µM and a GI50 (786-0 renal) greater than 100 µM. For the same molecule, the TGI (786-0 renal) was greater than 100 µM, the GI50 (SK-OV-3 ovarian) was greater than 100 µM and the TGI (SK-OV-3 ovarian) was greater than 100 µM. The GI50 (SK-MEL-5 melanoma) was greater than 100 µM, the TGI (SK-MEL-5 melanoma) was greater than 100 µM and the GI50 (HCT-116 colon) was greater than 100 µM. For the same molecule, the TGI (HCT-116 colon) was greater than 100 µM, the GI50 (MDA-MB-435) was greater than 100 µM and the TGI (MDA-MB-435) was greater than 100 µM. For the same molecule, the GI50 (A498 renal) was greater than 100 µM, the TGI (A498 renal) was greater than 100 µM and the GI50 (NCI/ADR-RES ovarian) was greater than 100 µM. For the same molecule, the TGI (NCI/ADR-RES ovarian) was greater than 100 µM.

In the case of `COc1ccccc1-n1cnc(N)c1C(=O)c1cc(OC)c(OC)c(OC)c1`, the GI50 (HCC-2998 colon) was 6.8 µM, the TGI (HCC-2998 colon) was greater than 100 µM and the GI50 (786-0 renal) was 5.41 µM. It also gave a TGI (786-0 renal) greater than 100 µM, a GI50 (SK-MEL-5 melanoma) of 3.13 µM and a TGI (SK-MEL-5 melanoma) greater than 100 µM. The GI50 (HCT-116 colon) was 4.95 µM, the TGI (HCT-116 colon) was greater than 100 µM and the GI50 (MDA-MB-435) was 1.07 µM. It also gave a TGI (MDA-MB-435) of 3.81 µM, a GI50 (A498 renal) of 2.79 µM and a TGI (A498 renal) of 9.69 µM. It also gave a GI50 (NCI/ADR-RES ovarian) of 13.1 µM and a TGI (NCI/ADR-RES ovarian) greater than 100 µM.

`C[C@@H]1CC[C@H]2[C@@H](C)C(O)O[C@@H]3O[C@]4(C)CC[C@@H]1[C@]32OO4` (stereo not given in full) was tested, and the GI50 (HCC-2998 colon) was 2.6 µM, the TGI (HCC-2998 colon) was greater than 63.2 µM and the GI50 (786-0 renal) was 1.59 µM. The TGI (786-0 renal) was greater than 48.8 µM, the GI50 (SK-OV-3 ovarian) was 11.8 µM and the TGI (SK-OV-3 ovarian) was greater than 60.3 µM. For the same molecule, the GI50 (SK-MEL-5 melanoma) was 0.53 µM, the TGI (SK-MEL-5 melanoma) was 16.6 µM and the GI50 (HCT-116 colon) was 0.141 µM. It also gave a TGI (HCT-116 colon) of 3.55 µM, a GI50 (MDA-MB-435) of 0.361 µM and a TGI (MDA-MB-435) of 10.8 µM. It also gave a GI50 (A498 renal) of 2.89 µM, a TGI (A498 renal) greater than 96.6 µM and a GI50 (NCI/ADR-RES ovarian) of 0.581 µM. The TGI (NCI/ADR-RES ovarian) was 12 µM.

`Nc1nc(=O)n(C2CC(O)C(CO)O2)cc1F` (stereo not given) gave a GI50 (HCC-2998 colon) of 0.000943 µM, a TGI (HCC-2998 colon) greater than 26.4 µM and a GI50 (786-0 renal) of 0.0589 µM. The TGI (786-0 renal) was greater than 100 µM, the GI50 (SK-OV-3 ovarian) was greater than 100 µM and the TGI (SK-OV-3 ovarian) was greater than 100 µM. It also gave a GI50 (SK-MEL-5 melanoma) of 0.228 µM, a TGI (SK-MEL-5 melanoma) greater than 100 µM and a GI50 (HCT-116 colon) of 1.49 µM. It also gave a TGI (HCT-116 colon) greater than 100 µM, a GI50 (MDA-MB-435) greater than 100 µM and a TGI (MDA-MB-435) greater than 100 µM. It also gave a GI50 (A498 renal) of 0.046 µM, a TGI (A498 renal) greater than 100 µM and a GI50 (NCI/ADR-RES ovarian) of 0.107 µM. The TGI (NCI/ADR-RES ovarian) was greater than 100 µM.

For `O=C1/C(=C/c2cccnc2)SC(=S)N1Cc1ccco1`, the TGI (786-0 renal) was greater than 40.8 µM, the TGI (SK-OV-3 ovarian) was greater than 75.9 µM and the TGI (SK-MEL-5 melanoma) was greater than 51 µM. The TGI (HCT-116 colon) was greater than 24.9 µM, the TGI (MDA-MB-435) was 5.54 µM and the TGI (A498 renal) was 70.6 µM. For the same molecule, the TGI (NCI/ADR-RES ovarian) was greater than 100 µM.

In the case of `CN(C)c1ccc(/C=C/C(=O)c2ccc(Nc3nc(Nc4ccc(F)cc4)nc(Nc4ccc(F)cc4)n3)cc2)cc1`, the GI50 (HCC-2998 colon) was 11 µM, the TGI (HCC-2998 colon) was 32.5 µM and the GI50 (786-0 renal) was 14.9 µM. It also gave a TGI (786-0 renal) of 45.8 µM, a GI50 (SK-OV-3 ovarian) of 14.7 µM and a TGI (SK-OV-3 ovarian) of 55.7 µM. The GI50 (SK-MEL-5 melanoma) was 7.65 µM, the TGI (SK-MEL-5 melanoma) was 23.9 µM and the GI50 (HCT-116 colon) was 11.4 µM. It also gave a TGI (HCT-116 colon) of 32.4 µM, a GI50 (MDA-MB-435) of 3.49 µM and a TGI (MDA-MB-435) of 25.4 µM. The GI50 (A498 renal) was 13 µM, the TGI (A498 renal) was 30.8 µM and the GI50 (NCI/ADR-RES ovarian) was 4.39 µM. It also gave a TGI (NCI/ADR-RES ovarian) of 30.7 µM.

With `O=C(O)C1C2C=CC(O2)C1C(=O)NCc1cccnc1` (stereo not given) the TGI (786-0 renal) was greater than 100 µM, the TGI (SK-OV-3 ovarian) was greater than 100 µM and the TGI (SK-MEL-5 melanoma) was greater than 100 µM. It also gave a TGI (HCT-116 colon) greater than 100 µM, a TGI (MDA-MB-435) greater than 100 µM and a TGI (A498 renal) greater than 100 µM. For the same molecule, the TGI (NCI/ADR-RES ovarian) was greater than 100 µM.

`Cc1nnc(C[C@@H]2C=C(c3ccc(Cl)cc3)c3ccccc3-n3c(C)nnc32)o1` showed a GI50 (HCC-2998 colon) of 1.33 µM, a TGI (HCC-2998 colon) of 18.6 µM and a GI50 (786-0 renal) of 1.04 µM. It also gave a TGI (786-0 renal) of 38.7 µM, a GI50 (SK-OV-3 ovarian) of 0.262 µM and a TGI (SK-OV-3 ovarian) of 12 µM. For the same molecule, the GI50 (SK-MEL-5 melanoma) was 1.81 µM, the TGI (SK-MEL-5 melanoma) was 19.7 µM and the GI50 (HCT-116 colon) was 0.472 µM. It also gave a TGI (HCT-116 colon) of 31.9 µM, a GI50 (MDA-MB-435) of 0.858 µM and a TGI (MDA-MB-435) of 55.9 µM. It also gave a GI50 (A498 renal) of 0.712 µM, a TGI (A498 renal) of 12.7 µM and a GI50 (NCI/ADR-RES ovarian) of 1.86 µM. The TGI (NCI/ADR-RES ovarian) was 43.7 µM.

`Cc1cc2c(cc1Cl)SC(N(c1ccccc1Cl)S(=O)(=O)c1ccc(Br)s1)=NS2(=O)=O` was tested, and the GI50 (HCC-2998 colon) was 19.7 µM, the TGI (HCC-2998 colon) was 53.4 µM and the GI50 (786-0 renal) was 30 µM. It also gave a TGI (786-0 renal) greater than 100 µM, a GI50 (SK-OV-3 ovarian) of 24.8 µM and a TGI (SK-OV-3 ovarian) greater than 100 µM. For the same molecule, the GI50 (SK-MEL-5 melanoma) was 13.8 µM, the TGI (SK-MEL-5 melanoma) was 26.7 µM and the GI50 (HCT-116 colon) was 16.5 µM. The TGI (HCT-116 colon) was 34.3 µM, the GI50 (MDA-MB-435) was 13.2 µM and the TGI (MDA-MB-435) was 31.6 µM. It also gave a GI50 (A498 renal) of 11.3 µM, a TGI (A498 renal) of 42 µM and a GI50 (NCI/ADR-RES ovarian) of 17.2 µM. The TGI (NCI/ADR-RES ovarian) was 41.3 µM.

`C[C@@H](O)[C@@H](C)Oc1nc(Nc2ccc(S(=N)(=O)C3CC3)cc2)ncc1C(F)(F)F` (stereo not given in full) gave a GI50 (HCC-2998 colon) of 0.0465 µM, a TGI (HCC-2998 colon) of 2.72 µM and a GI50 (786-0 renal) of 0.0352 µM. It also gave a TGI (786-0 renal) of 17.8 µM, a GI50 (SK-OV-3 ovarian) of 0.0891 µM and a TGI (SK-OV-3 ovarian) greater than 100 µM. For the same molecule, the GI50 (SK-MEL-5 melanoma) was 0.0266 µM, the TGI (SK-MEL-5 melanoma) was 0.108 µM and the GI50 (HCT-116 colon) was 0.0228 µM. It also gave a TGI (HCT-116 colon) greater than 100 µM, a GI50 (MDA-MB-435) of 0.0335 µM and a TGI (MDA-MB-435) of 1.22 µM. For the same molecule, the GI50 (A498 renal) was 0.021 µM, the TGI (A498 renal) was 0.0461 µM and the GI50 (NCI/ADR-RES ovarian) was 0.132 µM. For the same molecule, the TGI (NCI/ADR-RES ovarian) was 28.5 µM.

Work on `OCC#CCOCC#Cc1ccccc1C#CCOCC#CCO` yielded a GI50 (HCC-2998 colon) of 29 µM, a TGI (HCC-2998 colon) of 75.3 µM and a GI50 (786-0 renal) of 34 µM. The TGI (786-0 renal) was greater than 100 µM, the GI50 (SK-MEL-5 melanoma) was 39.8 µM and the TGI (SK-MEL-5 melanoma) was greater than 100 µM. The GI50 (HCT-116 colon) was 16.6 µM, the TGI (HCT-116 colon) was 44 µM and the GI50 (MDA-MB-435) was 53.3 µM. The TGI (MDA-MB-435) was greater than 100 µM, the GI50 (A498 renal) was 58.7 µM and the TGI (A498 renal) was greater than 100 µM. For the same molecule, the GI50 (NCI/ADR-RES ovarian) was 46.6 µM and the TGI (NCI/ADR-RES ovarian) was greater than 100 µM.

Work on `N#C/C(=C\c1ccc(O)c(O)c1)C(=O)NCc1ccc(C(F)(F)F)cc1` yielded a GI50 (HCC-2998 colon) of 12.1 µM, a TGI (HCC-2998 colon) of 24.5 µM and a GI50 (786-0 renal) of 18.4 µM. For the same molecule, the TGI (786-0 renal) was 37.5 µM, the GI50 (SK-OV-3 ovarian) was 16.6 µM and the TGI (SK-OV-3 ovarian) was 61.4 µM. It also gave a GI50 (SK-MEL-5 melanoma) of 8.09 µM, a TGI (SK-MEL-5 melanoma) of 24.4 µM and a GI50 (HCT-116 colon) of 2.58 µM. For the same molecule, the TGI (HCT-116 colon) was 11.4 µM, the GI50 (MDA-MB-435) was 5.69 µM and the TGI (MDA-MB-435) was 29.4 µM. The GI50 (A498 renal) was 16 µM, the TGI (A498 renal) was 36.1 µM and the GI50 (NCI/ADR-RES ovarian) was 5.19 µM. The TGI (NCI/ADR-RES ovarian) was 24.7 µM.
